Where two headings read alike, the source gives them in different places.
What was measured:
[1] = system: HEK-MOCK (untransfected HEK293 cells); experiment: MTT cytotoxicity assay in untransfected HEK293 cells; assay type: cell-based, human; details: 7 h drug exposure then 72 h drug-free
Protocol: (§1) Evaluation of compounds was carried out in an in-vitro cytotoxicity assay, involving a comparison between the effect of the platinum complex on human embryonic kidney cells (HEK293) transfected with human OCT1 (HEK-hOCT1) and OCT2 (HEK-hOCT2) versus those that are not transfected.
(§2) After overnight incubation, the platinum compound with or without an OCT inhibitor (disopyramide) was then be added to the culture medium to various concentrations. After exposure to the drug for 7 hours, the drug-containing medium was replaced with fresh, drug-free medium and the incubation was continued for 72 hours.
(§3) Evaluation of all three classes of compounds was carried out in an in-vitro cytotoxicity assay, involving a comparison between the effect of the platinum complex on human embryonic kidney cells (HEK293) transfected with human OCT1 (HEK-hOCT1) and OCT2 (HEK-hOCT2) versus those that are not transfected.

HEK-hOCT3 = experiment: MTT cytotoxicity assay in HEK293 stably transfected with human OCT3; assay type: cell-based
Description: HEK293 cell lines, stably expressing hOCT1, hOCT2 and hOCT3.

HEK-hNET = experiment: Toxicity toward HEK cells stably transfected with Norepinephrine Transporter; assay type: cell-based, human; details: selectivity HEK-EV vs HEK-hNET
Protocol: The term “resistance factor” is a measure of selectivity conferred upon the platinum-based compound by the inclusion of ligands that promote recognition by NET.
as §2

[2] = system: LANS neuroblastoma cell line; experiment: Toxicity against neuroblastoma cell line LANS; assay type: cell-based
Protocol: (§4) Compounds SM-73 and SM-85 are assayed against an array of neuroblastoma cell lines.

[3] = system: SHEP neuroblastoma cell line; experiment: Toxicity against neuroblastoma cell line SHEP; assay type: cell-based
Protocol: as §4

[4] = system: SHSY5Y neuroblastoma cell line; experiment: Toxicity against neuroblastoma cell line SHSY5Y; assay type: cell-based
Protocol: as §4

[5] = system: Kelly neuroblastoma cell line; experiment: Toxicity against neuroblastoma cell line Kelly; assay type: cell-based
Protocol: as §4

[6] = system: SKNSH neuroblastoma cell line; experiment: Toxicity against neuroblastoma cell line SKNSH; assay type: cell-based
Protocol: as §4

[7] = system: SKNMC neuroblastoma cell line; experiment: Toxicity against neuroblastoma cell line SKNMC; assay type: cell-based
Protocol: as §4

[8] = system: NB1691 neuroblastoma cell line; experiment: Toxicity against neuroblastoma cell line NB1691; assay type: cell-based
Protocol: as §4

[9] = Rate of inactivation of platinums by glutathione; assay type: physicochemical; details: platinum drug 100 μM; [GSH] 6.75 mM; [NaCl] 4.62; absorption at 260 nm
Protocol: Platinum-based compound as described herein at a 100 μM concentration was reacted with physiological concentration of GSH and the absorption at 260 nm was measured to monitor the progress of the reaction. Absorption as a function of time (0≦t≦1440 min) for platinum concentration of zero was subtracted from the absorption at each platinum concentration. Initial rates were calculated from the early time points as change in absorption over change in time.
One major pathway by which these platinum drugs get inactivated in vivo is by reaction with glutathione (GSH). We mimicked this reaction with GSH in vitro using physiological concentrations of GSH and salts. Increase in absorption at 260 nm over period of time was monitored for progress of the reaction and initial rates were calculated from the early time points in terms of the change in absorption over change in time.

[10] = system: HCT116 colon cancer cell line; experiment: Cytotoxicity in colon cancer cell line HCT116 with and without cimetidine; assay type: cell-based
Protocol: (§5) Platinum uptake and platinum-DNA adduct formation was then measured in these transfected cell lines. In some cases, chemical inhibitors of OCT1 were used. In general, we used disopyramide (150 μM). […] In some cases, cimetidine (3 mM) was used as a general OCT inhibitor. Cytotoxicity of some of the leads was determined in colon cancer cell lines. Described below in some detail are the methods for these studies.
(§6) HEK293 cell lines, stably expressing hOCT1, hOCT2 and hOCT3. The following colon cancer cell lines were also used: HCT116, RKO, DLD, HT29 and SW620 purchased from American Type Tissue Culture collection.
as §2

[11] = system: RKO colon cancer cell line; experiment: Cytotoxicity in colon cancer cell line RKO with and without cimetidine; assay type: cell-based
Protocol: as §5, §6, §2

[12] = system: DLD colon cancer cell line; experiment: Cytotoxicity in colon cancer cell line DLD with and without cimetidine; assay type: cell-based
Protocol: as §5, §6, §2

[13] = system: HT29 colon cancer cell line; experiment: Cytotoxicity in colon cancer cell line HT29 with and without cimetidine; assay type: cell-based
Protocol: as §5, §6, §2

[14] = system: SW620 colon cancer cell line; experiment: Cytotoxicity in colon cancer cell line SW620 with and without cimetidine; assay type: cell-based
Protocol: as §5, §6, §2

[15] = system: HEK293 transfected with human OCT1 (HEK-hOCT1); experiment: MTT cytotoxicity assay in HEK293 stably transfected with human OCT1; details: read-out: IC50 HEK-hOCT1; HEK293 stably transfected with human OCT1; MTT, 7 h exposure then 72 h
Protocol: as §1, §6, §2, §3

[16] = system: HEK293 transfected with human OCT2 (HEK-hOCT2); experiment: MTT cytotoxicity assay in HEK293 stably transfected with human OCT2; details: read-out: IC50 HEK-hOCT2; HEK293 stably transfected with human OCT2; MTT, 7 h exposure then 72 h
Protocol: as §1, §6, §2, §3

NET-expressing HEK cells = experiment: Uptake of platinum compounds into NET-expressing HEK cells vs empty vector HEK cells; assay type: cell-based, human
Description: The success of our targeting strategy can be gauged in-vitro also through comparing the uptake of the platinum complex into cells. The actual effects of this increased uptake can in turn be ascertained and quantified through comparison of DNA-binding of the platinum complexes.
Accumulation was normalized to protein content.

[17] = Toxicity evaluation of treated mice (CBC, kidney and liver function, ototoxicity); details: mouse, in vivo
Protocol: An evaluation is being conducted in various body tissues/plasma to determine toxicity.
The SM-73 treated mice group was also evaluated for ototoxicity.

neuroblastoma xenografts = experiment: Antitumor efficacy against neuroblastoma xenografts in mice; assay type: in vivo; details: compared to cisplatin (FIG. 8)
DNA in HEK cells = experiment: DNA-binding of the platinum agents in HEK cells; assay type: cell-based, human; details: compared to cisplatin
Protocol: After incubation, genomic DNA was isolated from the cell pellets using Wizard® Genomic DNA Purification Kit (Promega, Madison, Wis.) following the manufacturer's instructions. The genomic DNA was used for determination of platinum (ICP-MS) and DNA content (absorption spectrometry at 260 nm). Platinum-DNA adduct formation was expressed as amount of platinum per amount of DNA.

[18] = system: OCT1 (human, expressed in the cells; OCT1-dependent cytotoxicity); experiment: MTT cytotoxicity assay in HEK293 stably transfected with human OCT1; details: human
Protocol: as §1, §6, §2, §3

[19] = system: OCT2 (human, expressed in the cells; OCT2-dependent cytotoxicity); experiment: MTT cytotoxicity assay in HEK293 stably transfected with human OCT2; details: human
Protocol: as §1, §6, §2, §3

[20] = HCT116, absence of cimetidine, read-out: IC50
[21] = HCT116, cimetidine 3 mM, read-out: IC50 (in presence of cimetidine)
[22] = RK0, absence of cimetidine, read-out: IC50
[23] = RK0, cimetidine 3 mM, read-out: IC50 (in presence of cimetidine)
[24] = absence of cimetidine, read-out: IC50
[25] = cimetidine 3 mM, read-out: IC50 (in presence of cimetidine)
[26] = HT29, absence of cimetidine, read-out: IC50
[27] = HT29, cimetidine 3 mM, read-out: IC50 (in presence of cimetidine)
[28] = SW620, absence of cimetidine, read-out: IC50
[29] = SW620, cimetidine 3 mM, read-out: IC50 (in presence of cimetidine)

N.N.[Cl][Pt][Cl] [Cisplatin]
IC50 [1]: 2.62 µM
IC50 (HEK-hOCT3): 4.84 µM
Resistance Factor (HEK-hNET): 1.8
IC50 [2]: 6.16 µM
IC50 [3]: 24.5 µM
IC50 [4]: 18.6 µM
IC50 [5]: 19.9 µM
IC50 [6]: 3.77 µM
IC50 [7]: 9.63 µM
IC50 [8]: 12.4 µM
Initial Rate of reaction with glutathione [9]: 0.1173 Absorption unit/hr

O=C1[O][Pt]2([NH][C@@H]3CCCC[C@H]3[NH]2)[O]C1=O [Oxaliplatin, reference compound]
IC50 [1]: 1.62 µM
IC50 (HEK-hOCT3): 1.32 µM
IC50 [2]: 15.9 µM
IC50 [3]: 24.8 µM
IC50 [4]: 18.8 µM
IC50 [5]: 20.4 µM
IC50 [6]: 15.5 µM
IC50 [7]: 19.9 µM
IC50 [8]: 29.4 µM
IC50 [10, 20]: 6.14 ± 1.8 µM
IC50 [10, 21]: 66.5 µM
IC50 [11, 22]: 2.9 ± 0.77 µM
IC50 [11, 23]: 41.7 µM
IC50 [12, 24]: 21.5 ± 5.3 µM
IC50 [12, 25]: 151 µM
IC50 [13, 26]: 13.2 ± 3.3 µM
IC50 [13, 27]: 61.2 µM
IC50 [14, 28]: 7.16 ± 3.59 µM
IC50 [14, 29]: 40 µM
Initial Rate of reaction with glutathione [9]: 0.0909 Absorption unit/hr

[NH2][Pt]([NH2])([Cl])[N]1CCN(c2ccccc2)CC1 [SM71]
IC50 [15]: 0.745 ± 0.003 µM
IC50 [16]: 1.26 ± 0.319 µM

[NH3+][Pt-2]([Cl])([Cl])[NH+]1CCN(c2ccccc2)CC1 [SM73]
IC50 [1]: 12.3 ± 0.759 µM
IC50 [15]: 0.036 ± 0.004 µM
IC50 [16]: 0.005 ± 0.001 µM
Resistance Factor (HEK-hNET): 5.5
IC50 [2]: 5.24 µM
IC50 [3]: 16.5 µM
IC50 [4]: 13.8 µM
IC50 [5]: 13.1 µM
IC50 [6]: 3.58 µM
IC50 [7]: 13.6 µM
IC50 [8]: 9.72 µM
IC50 [10, 20]: 18.3 ± 2.28 µM
IC50 [10, 21]: 71.2 µM
Resistance Factor ([10]; HCT116, ratio of IC50 in presence and absence of cimetidine): 3.88
IC50 [11, 22]: 19.6 ± 1.17 µM
IC50 [11, 23]: 75.8 µM
Resistance Factor ([11]; RK0, ratio of IC50 in presence and absence of cimetidine): 3.87
IC50 [12, 24]: 48.9 ± 8.5 µM
IC50 [12, 25]: 195 µM
Resistance Factor ([12]; ratio of IC50 in presence and absence of cimetidine): 3.98
IC50 [13, 26]: 14.5 ± 8.54 µM
IC50 [13, 27]: 109 µM
Resistance Factor ([13]; HT29, ratio of IC50 in presence and absence of cimetidine): >7
IC50 [14, 28]: 33 ± 5.27 µM
IC50 [14, 29]: 147 µM
Resistance Factor ([14]; SW620, ratio of IC50 in presence and absence of cimetidine): 4.45
Initial Rate of reaction with glutathione [9]: 0.1132 Absorption unit/hr
selectivity for accumulation into NET-expressing HEK cells (NET-expressing HEK cells): 3.25 fold
ototoxicity [17]: No ototoxicity was observed
antitumor efficacy against neuroblastoma xenografts (neuroblastoma xenografts): retains the antitumor efficacy of cisplatin to a significant extent
DNA-binding (DNA in HEK cells): increased DNA-binding

[NH2][Pt]([NH2])([Cl])[N]1CCN(c2ccccc2)CC1 [SM78]
IC50 at 7 h ([18]; IC50 HEK-hOCT1, HEK293 stably transfected with human OCT1, MTT, 7 h exposure then 72 h): 0.988 ± 0.03 µM
IC50 at 7 h ([19]; IC50 HEK-hOCT2, HEK293 stably transfected with human OCT2, MTT, 7 h exposure then 72 h): 2.35 ± 0.313 µM

[NH2][Pt]([Cl])([Cl])[N]1CCN(c2ccc(F)cc2)CC1 [SM85]
IC50 at 7 h [18]: 0.071 ± 0.014 µM
IC50 at 7 h [19]: 0.208 ± 0.035 µM
Initial Rate of reaction with glutathione [9]: 0.1037 Absorption unit/hr
DNA-binding (DNA in HEK cells): increased DNA-binding

From US9217007B2, “Platinum anticancer agents” (priority 2011, dated 2015)
